3 substances from patent US7943580B2, “Polypeptide and the use thereof” (National Cerebral and Cardiovascular Center, priority 2004, dated 2011) can be followed below.

Test [1] concerns conscious rats. As to the kind of experiment: Blood hormone levels after central administration of NUNP and NSNP. In kind it is in vivo, rat. To be noted: 20 minutes after central administration of 1 nmol.
The next test concerns c-Fos protein. As to the kind of experiment: Immunostaining for c-Fos protein in the suprachiasmatic nucleus after intracerebroventricular administration. In kind it is in vivo, rat. To be noted: intracerebroventricular 1 nmol at CT6, 90 minutes after administration, compared to physiological saline. The protocol: Male Wistar rats (300-350 g) were used for the experiment of circadian rhythm phase shift. Intracerebroventricular administration was performed in accordance with the method of Ida et al. (Ida, T., et al., (1999) Brain Res., 821, 526, 1999). The spontaneous locomotor activity was measured by the method of Nakahara et al. (Nakahara, K., et al., Biochem. Biophys. Res. Commun., 318, 156, 2004). The phase shift of spontaneous locomotor activity rhythm was calculated based on the distance between the lines drawn by plotting a delay in time of daily onset of spontaneous locomotor activity for at least 10 days before and after the intracerebroventricular administration of NMS or physiological saline. […] Phase-response data were evaluated using one-way ANOVA followed by Scheffe's multiple comparisons test. […] The spontaneous locomotor activity was recorded for 2 weeks before and after the administration, respectively, according to the method of Nakahara et al. (Nakahara, K., et al., Biochem. Biophys. Res. Commun., 318, 156, 2004). At the conclusion of the experiment, the exact location of the cannula was determined histologically as follows. […] The sections were analyzed by comparing to the corresponding rat brain atlas of Paxinos and Watson (Paxinos, G. and Watson, C., The rat brain in stereotaxic coordinates, Academic Press, New York, USA, 1998). […]

For test [2], the system named is conscious rats. As to the kind of experiment: Prolactin release suppressing activity by central administration of NMS. In kind it is in vivo, rat. As to conditions: 20 minutes after central administration of 1 nmol. The protocol:
(§1) A catheter was placed in the lateral ventricle of Wistar rats (male, 8 weeks old) and housed under controlled conditions with free access to their diet, while they were accustomed to experimental procedures (22°, light-on from 7:00 to 19:00). […] (1) For feed intake during the dark phase, NMS was administered at 18:00 and their feed intake was measured during 19:00 to 7:00. In addition, (2) NMS was administered to 14 hour-fasted rats at 9:00 and immediately thereafter the feed intake was measured for 2 hours.
Changes in prolactin blood level by central administration of NMS were monitored. Central administration to conscious rats was performed as in EXAMPLE 9. Blood was collected by decapitation 20 minutes after peptide administration. Prolactin was assayed using RIA kit (Amersham).

The next test concerns chick rectum. Kind of test: Contractile activity on the chick rectum. As to conditions: dose of 10 pmol, 37° C., Krebs-Henseleit solution. The procedure: Contraction of the rectum was then measured.
Test [3] relates to Wistar rats. As to the kind of experiment: Effect on feed intake by central administration. Type of test: in vivo, rat. The procedure:
as §1

In the next test the test system is Sprague-Dawley rats. Kind of test: Hypertensive activity by transvenous administration to rat. As to conditions: dose of 3 nmol/kg, pentobarbital-anesthetized rats.
Test [4] relates to Wistar rats. Kind of test: Phase shift of circadian rhythms in spontaneous locomotor activity. In kind it is in vivo, rat. The protocol: Male Wistar rats (300-350 g) were used for the experiment of circadian rhythm phase shift. Intracerebroventricular administration was performed in accordance with the method of Ida et al. (Ida, T., et al., (1999) Brain Res., 821, 526, 1999). The spontaneous locomotor activity was measured by the method of Nakahara et al. (Nakahara, K., et al., Biochem. Biophys. Res. Commun., 318, 156, 2004). The phase shift of spontaneous locomotor activity rhythm was calculated based on the distance between the lines drawn by plotting a delay in time of daily onset of spontaneous locomotor activity for at least 10 days before and after the intracerebroventricular administration of NMS or physiological saline. The onset time of spontaneous locomotor activity was designated as CT12 (circadian time 12). Phase-response data were evaluated using one-way ANOVA followed by Scheffe's multiple comparisons test. […] At 90 minutes after the administration, rats were perfused with 2% paraformaldehyde. Immunostaining for c-Fos protein was performed according to the method of Date et al. (Date, Y, et al., Proc. Natl. Acad. Sci. USA, 96, 748, 1999). The intra-suprachiasmatic nucleus perfusion was performed by an improvement of the Piggins et al. method (Piggins, H. D., et al., J. Neurosci., 15, 5612, 1995). Rats were allowed to free run under constant dark conditions for 2 weeks. Each rat was then implanted with a 26-gauge stainless steel guide cannula in the stereotaxic coordinates by Paxinos and Watson (Paxinos, G. and Watson, C., The rat brain in stereotaxic coordinates, Academic Press, New York, USA, 1998) to reach the suprachiasmatic nucleus. […] The spontaneous locomotor activity was recorded for 2 weeks before and after the administration, respectively, according to the method of Nakahara et al. (Nakahara, K., et al., Biochem. Biophys. Res. Commun., 318, 156, 2004). At the conclusion of the experiment, the exact location of the cannula was determined histologically as follows. Rats received 1 μl of India ink to mark the administered site and were then decapitated. The brain was immediately frozen and cut on a cryostat into 20 μm coronal sections, followed by staining with Crystal Violet. The sections were analyzed by comparing to the corresponding rat brain atlas of Paxinos and Watson (Paxinos, G. and Watson, C., The rat brain in stereotaxic coordinates, Academic Press, New York, USA, 1998). When data obtained for the location was more than 200 μm away from the external border of the suprachiasmatic nucleus, the data was excluded from further analysis.

Test [5] relates to conscious rats. Kind of test: Blood hormone levels after central administration of NUNP and NSNP. In kind it is in vivo, rat. To be noted: for prolactin level in blood: 20 minutes after central administration of 1 nmol. The protocol: as §1
(§2) Changes in prolactin blood level by central administration were monitored. Central administration to conscious rats was performed in the same way as in EXAMPLE 9. The animal received rat NUNP-36 or rat NSNP-37 prepared by the procedure of EXAMPLE 14 and dissolved in physiological saline and then decapitated, followed by blood collection in 20 minutes or blood collection via the tail vein at each time after peptide administration. Prolactin was measured using RIA kit (Amersham). A direct effect on pituitary anterior cells was also examined. The pituitary anterior cells were prepared from Wistar rats (5 week old, male), incubated in a 96-well plate for 2 days and used for the experiment. After rat NUNP-36 or rat NSNP-37 was added, the culture supernatant was recovered 30 minutes after and the prolactin level was measured.

For another test, the system named is pituitary anterior cells. As to the kind of experiment: Prolactin release from primary culture of anterior pituitary cells. Type of test: cell-based. As to conditions: primary culture of rat anterior pituitary cells, supernatant recovered 30 minutes after addition. The protocol: as §2

As to “rat NSNP-37: rat neuromedin S N-terminal peptide-37, SEQ ID NO: 10 (FLFHYSRAWKSTHPVNSEFAPVHPLMRLAAKLPSRRM; listed as Rattus norvegicus)”, in the test with conscious rats [1], the “follicle-stimulating hormone level in blood” value turned out to be 10.64 ± 0.72 ng/mL; the “other blood hormone (growth hormone, luteinizing hormone, corticosterone) levels” value is reported as “any significant change was not noted”; the “thyroid-stimulating hormone level in blood” value came to 5.37 ± 0.51 ng/mL.

As for “LPRLLHTDSRMATIDFPKKDPTTSLGRPFFLFRPRN [rat NMS]”, the “expression of c-Fos protein in the suprachiasmatic nucleus” value in the test with c-Fos protein is given as “increased”. Also, in the test with conscious rats [2], the blood prolactin level stood at 3.6 ± 1.2 ng/mL. Also, the “contraction of the chick rectum” value in the test on chick rectum is “significant contractile activity”. The “2 hour feed intake of fasted rats” value with Wistar rats [3] (0.5 nmol into the lateral ventricle, 14 hour-fasted rats) is recorded as “significantly suppressed the feed intake”. In addition, the “feed intake during the dark phase” value with Wistar rats [3] (administered into the lateral ventricle at 18:00, feed intake measured 19:00 to 7:00) is “significantly suppressed the feed intake dose-dependently”. Further, the “dose at which the feed intake suppressing effect showed the maximum” value in the test with Wistar rats [3] (dark phase feed intake, lateral ventricle administration) is listed as 1 nmol. Besides, in the test on Sprague-Dawley rats, the “blood pressure of rats” value was “significantly increased the blood pressure”. Also, the “phase of spontaneous locomotor activity” value with Wistar rats [4] (intracerebroventricular 1 nmol at CT3-9, constant dark conditions) is given as “advances in the phase”; in the test with Wistar rats [4] (intracerebroventricular 1 nmol at CT22-24, constant dark conditions) it was “delays in the phase”; in the test with Wistar rats [4] (intracerebroventricular 1 nmol at any other time, constant dark conditions) it was “No phase shift was observed”. For the same substance, the “length of circadian rhythm” value in the test on Wistar rats [4] (intracerebroventricular administration, any time) was “not affected”. Besides, the “phase of circadian rhythms of spontaneous locomotor activity” value is recorded as “phase advances” in the test with Wistar rats [4] (microinjected directly into the suprachiasmatic nucleus at CT6) and “delays” in the test with Wistar rats [4] (microinjected directly into the suprachiasmatic nucleus at CT23).

For the substance “rat NUNP-36: rat neuromedin U N-terminal peptide-36, SEQ ID NO: 40 (FLFHYSKTQKLGNSNVVSSVVHPLLQLVPQLHERRM; listed as Rattus norvegicus)”, the “prolactin level in blood” value with conscious rats [5] is 68.74 ± 10.4 ng/mL. For the same substance, the “prolactin level in blood” value in the test on conscious rats [5] (listed as Rat NUNP-36) was 27.34 ± 5.63 ng/mL. Besides, the “time at which the prolactin level reached the peak” value with conscious rats [5] (central administration at 1 nmol and 0.2 nmol) is 20 min. Besides, the “prolactin level in blood, dose and time dependency” value in the test on conscious rats [5] (since 10 minutes after central administration at 1 nmol and 0.2 nmol) is given as “significant increase of prolactin level”. For the same substance, in the test with conscious rats [1], the “follicle-stimulating hormone level in blood” value is 12.26 ± 0.95 ng/mL; the “other blood hormone (growth hormone, luteinizing hormone, corticosterone) levels” value is reported as “any significant change was not noted”; the “thyroid-stimulating hormone level in blood” value was 4.92 ± 0.22 ng/mL. For the same substance, the “prolactin in the culture supernatant” value in the test on pituitary anterior cells was “no change was noted”.
